In patent publication US12662491B2 (Redona Therapeutics, Inc., priority 2020, dated 2026):

Each compound was assayed against T1, Zcchc11 enzyme (Homo sapiens, UniProt Q5TAX3) (assay: TUTase assay (Zcchc11 assay, Lin28a-dependent polyuridylation of pre-let-7)). Conditions: LIN28A 10 nM, Zcchc11 0.2 nM, 5′-fluorescein pre-let-7 miRNA 2 nM, UTP 5 uM, room temperature, 30 minutes pre-incubation; read-out: Potency Lin28a-dep Z11 IC50.
T1 construct: made in house; host or cells: HEK293 cells (Zcchc11); E. coli Rosetta II (LIN28A)
T1 sequence (Q5TAX3 212-1420): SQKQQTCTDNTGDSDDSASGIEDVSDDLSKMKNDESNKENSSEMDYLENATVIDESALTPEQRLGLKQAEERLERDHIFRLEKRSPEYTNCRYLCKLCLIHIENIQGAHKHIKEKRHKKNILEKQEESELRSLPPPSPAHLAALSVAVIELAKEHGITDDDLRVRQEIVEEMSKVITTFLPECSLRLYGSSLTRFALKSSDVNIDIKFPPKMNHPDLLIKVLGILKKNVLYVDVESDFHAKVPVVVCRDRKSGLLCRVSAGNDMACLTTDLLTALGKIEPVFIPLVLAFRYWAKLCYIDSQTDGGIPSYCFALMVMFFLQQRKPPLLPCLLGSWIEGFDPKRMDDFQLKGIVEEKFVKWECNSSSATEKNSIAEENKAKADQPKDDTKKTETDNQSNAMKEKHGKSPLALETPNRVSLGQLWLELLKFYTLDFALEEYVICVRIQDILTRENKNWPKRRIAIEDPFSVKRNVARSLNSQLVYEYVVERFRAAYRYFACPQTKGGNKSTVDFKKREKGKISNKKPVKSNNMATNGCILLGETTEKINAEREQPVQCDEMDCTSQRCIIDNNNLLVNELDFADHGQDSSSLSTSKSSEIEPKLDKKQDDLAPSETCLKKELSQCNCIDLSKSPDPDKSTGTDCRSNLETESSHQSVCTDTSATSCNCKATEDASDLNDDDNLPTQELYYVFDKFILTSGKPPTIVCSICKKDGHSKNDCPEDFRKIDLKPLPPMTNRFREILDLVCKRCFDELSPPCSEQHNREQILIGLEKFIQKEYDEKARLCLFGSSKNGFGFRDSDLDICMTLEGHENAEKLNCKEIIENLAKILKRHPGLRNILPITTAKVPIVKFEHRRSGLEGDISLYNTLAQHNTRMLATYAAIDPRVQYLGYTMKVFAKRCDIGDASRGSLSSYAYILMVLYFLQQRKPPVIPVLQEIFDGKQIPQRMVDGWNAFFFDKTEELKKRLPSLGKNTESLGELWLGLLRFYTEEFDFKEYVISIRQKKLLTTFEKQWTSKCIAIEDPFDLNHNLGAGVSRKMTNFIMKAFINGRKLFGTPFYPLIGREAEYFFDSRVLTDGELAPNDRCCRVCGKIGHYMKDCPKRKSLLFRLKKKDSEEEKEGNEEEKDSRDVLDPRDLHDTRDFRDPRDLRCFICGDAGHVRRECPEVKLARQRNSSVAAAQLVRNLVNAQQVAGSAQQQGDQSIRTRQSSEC
Type: biochemical
Method in brief: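 LIN28A (10 nM) in pH 7.3 HEPES/KCl/MgCl2/DTT buffer was mixed with serially diluted compound, then 0.2 nM truncated human Zcchc11 and 2 nM labeled pre-let-7 were added for 30 min at room temperature. UTP (5 uM) and quench probe (4 nM) then started the reaction. Linear early rates gave IC50 values.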

Row | IC50 | SMILES
1 | ≤ 1 µM | Cc1cccnc1OC[C@H]1CCCN1c1cc2c(cc1F)c(=O)c(C(=O)O)cn2C1CCOCC1 [Example 14, 6-fluoro-7-[(2R)-2-[[(3-methylpyridin-2-yl)oxy]methyl]pyrrolidin-1-yl]-1-(oxan-4-yl)-4-oxoquinoline-3-carboxylic acid]
2 | ≤ 1 µM | CN(C)C1CN(c2ccc(-n3cc(C(=O)O)c(=O)c4cc(Cl)c(N5CCC(C)(C)C5COc5ncccc5Cl)cc43)cn2)C1 (centres unmarked) [Example 59, 6-chloro-7-(2-{[(3-chloropyridin-2-yl)oxy]methyl}-3,3-dimethylpyrrolidin-1-yl)-1-{6-[3-(dimethylamino)azetidin-1-yl]pyridin-3-yl}-4-oxoquinoline-3-carboxylic acid]

Same assay, conditions: Lin28a-dependent Zcchc11 (Z11) TUTase activity; read-out: Potency Lin28a-dep Z11 IC50

Row | IC50 | SMILES
3 | ≤ 1 µM | O=C(O)c1cn(-c2ccc(O)cc2)c2cc(N3CCC[C@@H]3Cn3ccc4cccnc43)c(F)cc2c1=O [Compound 113, (R)-7-(2-((1H-pyrrolo[2,3-b]pyridin-1-yl)methyl)pyrrolidin-1-yl)-6-fluoro-1-(4-hydroxy-phenyl)-4-oxo-1,4-dihydro-quinoline-3-carboxylic acid]
4 | ≤ 1 µM | Cc1c(-n2cc(C(=O)O)c(=O)c3cc(Cl)c(N4CCC[C@@H]4COc4ncccc4Cl)cc32)cnn1C (racemic) [Compound 179, rac-(R)-6-chloro-7-(2-(((3-chloropyridin-2-yl)oxy)methyl)pyrrolidin-1-yl)-1-(1,5-dimethyl-1H-pyrazol-4-yl)-4-oxo-1,4-dihydro-quinoline-3-carboxylic acid]
5 | ≤ 1 µM | CC(=O)N1Cc2ccc(-n3cc(C(=O)O)c(=O)c4cc(Cl)c(N5CCC[C@@H]5COc5ncccc5Cl)cc43)cc2C1 [Compound 237, 1-(2-acetyl-1,3-dihydro-isoindol-5-yl)-6-chloro-7-[(2R)-2-[[(3-chloropyridin-2-yl)oxy]methyl]pyrrolidin-1-yl]-4-oxoquinoline-3-carboxylic acid]
6 | ≤ 1 µM | COc1ccc(Cl)c(OCC23CC(CN2c2nc4c(cc2Cl)c(=O)c(C(=O)O)cn4-c2ccc(N4CC(N(C)C)C4)nc2)C3)n1 [Compound 279, 6-chloro-7-(1-(((3-chloro-6-methoxy-pyridin-2-yl)oxy)methyl)-2-azabicyclo [2.1.1]hexan-2-yl)-1-(6-(3-(dimethyl-amino)azetidin-1-yl)pyridin-3-yl)-4-oxo-1,4-dihydro-1,8-naphthyridine-3-carboxylic acid formic acid]
7 | ≤ 1 µM | N#Cc1cc2c(=O)c(C(=O)O)cn(-c3cnc(N4CCC4)cn3)c2nc1N1CCC[C@@H]1COc1ncccc1F (racemic) [Compound 194, rac-(R)-1-(5-(azetidin-1-yl)pyrazin-2-yl)-6-cyano-7-(2-(((3-fluoropyridin-2-yl)oxy)methyl)pyrrolidin-1-yl)-4-oxo-1,4-dihydro-1,8-naphthyridine-3-carboxylic acid]
8 | 1 to 10 µM | CN(C)C1CN(c2ccc(-n3cc(C(=O)O)c(=O)c4ccc(N5C(=O)CC[C@@H]5COc5ncccc5Cl)cc43)cn2)C1 [Compound 249, (R)-7-(2-(((3-chloropyridin-2-yl)oxy)methyl)-5-oxopyrrolidin-1-yl)-1-(6-(3-(dimethyl-amino)azetidin-1-yl)pyridin-3-yl)-4-oxo-1,4-dihydro-quinoline-3-carboxylic acid]
9 | 10 to 50 µM | N#Cc1cc2c(=O)c(C(=O)O)cn(-c3cnccn3)c2nc1N1CCC[C@@H]1COc1ccccc1 [Compound 283, (R)-6-cyano-4-oxo-7-(2-(phenoxy-methyl)pyrrolidin-1-yl)-1-(pyrazin-2-yl)-1,4-dihydro-1,8-naphthyridine-3-carboxylic acid]
10 | ≤ 1 µM | CN(C)C1CN(c2ccc(-n3cc(C(=O)O)c(=O)c4cc(F)c(N5C[C@@H](c6cccnc6)C[C@@H]5COc5ncccc5Cl)cc43)cn2)C1 (single isomer, unassigned) [Compound 329]
11 | ≤ 1 µM | COc1ccnc(OC[C@H]2C[C@H]3C[C@H]3N2c2cc3c(cc2Cl)c(=O)c(C(=O)O)cn3-c2ccc(N(C)C)nc2)c1F [Compound 196, 6-chloro-1-(6-(dimethyl-amino)pyridin-3-yl)-7-((1R,3R,5R)-3-(((3-fluoro-4-methoxy-pyridin-2-yl)oxy)methyl)-2-azabicyclo [3.1.0]hexan-2-yl)-4-oxo-1,4-dihydro-quinoline-3-carboxylic acid]

Same assay, conditions: Lin28a-dependent Zcchc11 (Z11) TUTase assay; read-out: Potency Lin28a-dep Z11 IC50

Row | IC50 | SMILES
12 | ≤ 1 µM | Nc1cc(-n2cc(C(=O)O)c(=O)c3cc(Cl)c(N4CCC[C@@H]4COc4ncccc4Cl)cc32)cnn1 [Example 617, (R)-1-(6-aminopyridazin-4-yl)-6-chloro-7-(2-(((3-chloropyridin-2-yl)oxy)methyl)pyrrolidin-1-yl)-4-oxo-1,4-dihydroquinoline-3-carboxylic acid]
13 | ≤ 1 µM | Cn1cc(-n2cc(C(=O)O)c(=O)c3cc(Cl)c(N4CCC[C@@H]4COc4ncccc4Cl)cc32)cn1 [Example 436, (R)-6-chloro-7-(2-(((3-chloropyridin-2-yl)oxy)methyl)pyrrolidin-1-yl)-1-(1-methyl-1H-pyrazol-4-yl)-4-oxo-1,4-dihydroquinoline-3-carboxylic acid]
14 | ≤ 1 µM | CN1CCn2nc(-n3cc(C(=O)O)c(=O)c4cc(C#N)c(N5CCC[C@@H]5COc5ncccc5Cl)cc43)cc2C1 [Example 561, (R)-7-(2-(((3-chloropyridin-2-yl)oxy)methyl)pyrrolidin-1-yl)-6-cyano-1-(5-methyl-4,5,6,7-tetrahydropyrazolo [1,5-a]pyrazin-2-yl)-4-oxo-1,4-dihydroquinoline-3-carboxylic acid]
15 | ≤ 1 µM | O=C(O)c1cn(-c2ccc3c(c2)CS(=O)(=O)N3)c2cc(N3CCC[C@@H]3COc3ncccc3Cl)c(Cl)cc2c1=O [Example 621, (R)-6-chloro-7-(2-(((3-chloropyridin-2-yl)oxy)methyl)pyrrolidin-1-yl)-1-(2,2-dioxido-1,3-dihydrobenzo[c]isothiazol-5-yl)-4-oxo-1,4-dihydroquinoline-3-carboxylic acid]
16 | ≤ 1 µM | CN(C)C1CN(c2cc(-n3cc(C(=O)O)c(=O)c4cc(Cl)c(N5CCC[C@@H]5COc5ncccc5Cl)cc43)ccn2)C1 [Example 548, (R)-6-chloro-7-(2-(((3-chloropyridin-2-yl)oxy)methyl)pyrrolidin-1-yl)-1-(2-(3-(dimethylamino)azetidin-1-yl)pyridin-4-yl)-4-oxo-1,4-dihydroquinoline-3-carboxylic acid]
17 | ≤ 1 µM | CN(C)c1ccc(Cl)c(OC[C@H]2CC3CC3N2c2cc3c(cc2Cl)c(=O)c(C(=O)O)cn3-c2ccc(N3CC(N(C)C)C3)nc2)n1 (stereo partly drawn) [Example 665, 6-chloro-7-((3R)-3-(((3-chloro-6-(dimethylamino)pyridin-2-yl)oxy)methyl)-2-azabicyclo[3.1.0]hexan-2-yl)-1-(6-(3-(dimethylamino)azetidin-1-yl)pyridin-3-yl)-4-oxo-1,4-dihydroquinoline-3-carboxylic acid]
18 | ≤ 1 µM | O=C(O)c1cn(-c2ccncc2)c2cc(N3CCC[C@@H]3COc3ncccc3Cl)c(Cl)cc2c1=O [Example 490, (R)-6-chloro-7-(2-(((3-chloropyridin-2-yl)oxy)methyl)pyrrolidin-1-yl)-4-oxo-1-(pyridin-4-yl)-1,4-dihydroquinoline-3-carboxylic acid]
19 | 1 to 10 µM | COCCN1CCC(n2cc(C(=O)O)c(=O)c3cc(Cl)c(N4CCC[C@@H]4COc4ncccc4Cl)cc32)CC1 [Example 463, (R)-6-chloro-7-(2-(((3-chloropyridin-2-yl)oxy)methyl)pyrrolidin-1-yl)-1-(1-(2-methoxy-ethyl)piperidin-4-yl)-4-oxo-1,4-dihydroquinoline-3-carboxylic acid]
20 | ≤ 1 µM | O=C(O)c1cn(-c2ccc3[nH]ccc3c2)c2cc(N3CCC[C@@H]3COc3ccccn3)c(F)cc2c1=O [Example 439, (R)-6-fluoro-1-(1H-indol-5-yl)-4-oxo-7-(2-((pyridin-2-yloxy)methyl)pyrrolidin-1-yl)-1,4-dihydroquinoline-3-carboxylic acid]
